The text below walks through data of paper PMC9787607, “A Novel Protocol for the Synthesis of 1,2,4-Oxadiazoles Active against Trypanosomatids and Drug-Resistant Leukemia Cell Lines” (Tropical Medicine and Infectious Disease, 2022).

One data set concerns K562. The data set is described as follows: MTT cytotoxicity to CML cell line K562. Type of data set: cell-based. The following applies: Homo sapiens, 72 h. As for the experimental part:
(§1) The CML cell lines K562, Lucena-1 (K562/VCR), and FEPS (K562/DNR) were cultured in RPMI-1640 medium supplemented with 25 mM HEPES and 2 g L^−1 sodium bicarbonate adjusted to pH 7.4 with NaOH, 100 U penicillin and […] streptomycin. All media were supplemented with 10% FBS. Dr. Vivian M. Rumjanek (Instituto de Bioquímica Médica, UFRJ, Brazil) kindly donated Lucena-1 and FEPS cells. Briefly, K562 cells were exposed to increasing concentrations of the chemotherapeutic drugs vincristine sulfate (VCR) and daunorubicin hydrochloride (DNR) (both from Sigma-Aldrich), as described previously. Lucena-1 (K562/VCR) and FEPS (K562/DNR) cells were cultured in the presence of either 60 nM VCR or 500 nM DNR to maintain the MDR phenotypes. For subcultures, cells were harvested every three days followed by washing with cold FBS, and a final concentration of 2 × 10^4 cells mL^−1 was maintained at 37 °C in 5% CO2.
(§2) Cell viability was determined by the 3-(4,5-dimethylthiazol-2-yl)-2,5-diphenyltetrazolium (MTT) colorimetric assay. CML cells (2 × 10^4 cells·mL^−1) were incubated for 72 h at 37 °C, followed by treatment with compounds at a range of concentrations (100–1 μM). Negative controls were prepared with 0.5% DMSO. An MTT salt solution was added to each well to a final concentration of 0.5 g·L^−1, and plates were incubated at 37 °C in 5% CO2 for 3 h. After centrifugation, 200 μL DMSO was added to dissolve the dark-blue formazan crystals formed by MTT reduction. Absorbance was measured on a microplate reader at 570 nm, which is directly proportional to formazan contents and indicative of living cells.
(§3) The percent cell or parasite viability was calculated by the formula: % viability = [(A − P)/(N − P)] × 100, A = absorbance of specific well, P = positive control, N = negative control. Determination of half-maximal effective concentrations (EC50), calculated by logarithmic regression, and significance analysis (p < 0.05), using ANOVA and Dunnett’s test, by GraphPad Prism 7.0 software. The results are expressed as the mean and standard deviation (SD) of three independent experiments.

The subject of a further data set is Lucena-1 (K562/VCR). The data set is described as follows: cells. It is filed as cell-based, human. The following applies: for RR (relative resistance) Lucena-1: (EC50 MDR cells)/(EC50 parental cells), Lucena-1/K562; for EC50: Homo sapiens, Lucena 1, 72 h, read-out: EC50 Lucena-1. As for the experimental part:
as §1, §2, §3

Another data set deals with FEPS (K562/DNR). The data set is described as follows: MTT cytotoxicity to MDR CML cell line FEPS. Type of data set: cell-based, human. To be noted: for RR (relative resistance) FEPS: (EC50 MDR cells)/(EC50 parental cells), FEPS/K562; for EC50: Homo sapiens, K562, 72 h, MTT. As for the experimental part: as §1, §2, §3
Data set [1] has as its system T. cruzi amastigotes (Tulahuen C2C4 LacZ strain). The data set is described as follows: microbe, parasite or virus in culture. Type of data set: cell-based, Trypanosoma cruzi. To be noted: Trypanosoma cruzi, TULAHUEN; for viability at 50 µM: LLC-MK2, 120 h, screening at 50 μM, 120 h, compared with untreated controls. As for the experimental part: To a monolayer of 1.0 × 10^7 LLC-MK2 cells in a 150 cm^2 culture flask were added 5.0 × 10^7 trypomastigotes of T. cruzi expressing the […] (Tulahuen C2C4 LacZ) in complete DMEM with 2.5% FBS. The infection was allowed to occur for 24 h, the supernatant was removed, and the cell monolayer was washed with PBS. Complete DMEM with 2.5% FBS was renewed every 2 days up to the sixth day after infection. Trypomastigote forms were collected daily from the supernatant between days 7 and 12 after infection, enriched by differential centrifugation (1500× g for 10 min, 5580× g for 20 min), and resuspended in complete DMEM with 5% FBS. Parasite density was determined by counting the mobile trypomastigotes on Neubauer chambers before use.
. The medium was renewed, and trypomastigote forms of T. cruzi (Tulahuen C2C4 LacZ strain, 2.0 × 10^5 parasites per well) were added. After incubation for 24 h at 37 °C in 5% CO2, the cell monolayer was washed with PBS to remove noninternalized parasites. DMEM without phenol red and 5% FBS was added, and infected cells were treated with compounds at a range of concentrations in triplicate (50 μM or 100–1 μM). Untreated infected cells and noninfected LLC-MK2 cells were used as negative and positive controls, respectively. Vehicle control containing DMEM without phenol red and 0.3% DMSO was maintained for comparison. After incubation for 120 h at 37 °C in 5% CO2, a solution containing […] and 0.8% IGEPAL CA-630 in PBS (30 µL per well), followed by further incubation for 2 h at 37 °C in 5% CO2. Absorbance was measured using a microplate reader at 570 nm.
as §3

Data set [2] is described as follows: Cytotoxicity to LLC-MK2 host cells (MTT). Type of data set: cell-based. The following applies: rhesus monkey, screening at 50 μM, 120 h. The method, then:
(§4) LLC-MK2 kidney fibroblasts (ATCC) and RAW 264.7 macrophages (ATCC) were cultivated in culture flasks in complete DMEM with 5% FBS at 37 °C in 5% CO2. The LLC-MK2 cell monolayer was detached by treatment with trypsin-EDTA 0.05% for 5 min at 37 °C. The RAW cell monolayer was detached mechanically. In both cases, the cells were centrifuged at 480× g for 6 min and resuspended in complete DMEM with 5% FBS, and the cell density was determined by counting with trypan-blue dye exclusion on Neubauer chambers before use.
(§5) LLC-MK2 cells were seeded in a 96-well microplate (1.0 × 10^4 cells per well) in complete DMEM with 5% FBS (120 µL per well). After incubation for 24 h at 37 °C in 5% CO2, the medium was renewed, and compounds were added at a range of concentrations in triplicate (50 μM or 100–1 μM). Untreated cells and cells treated with DMEM and 10% DMSO were used as negative and positive controls, respectively. Vehicle control containing DMEM and 0.3% DMSO was maintained for comparison. After incubation for 120 h at 37 °C in 5% CO2, the medium was renewed, and MTT salt solution in PBS was added (3.0 mM, 20 µL per well). After incubation for 2 h at 37 °C in 5% CO2, the supernatant was removed, and MTT formazan was dissolved in DMSO (150 µL per well). Absorbance was measured using a microplate reader at 570 nm.
as §3

The subject of data set [3] is L. amazonensis promastigotes. The data set is described as follows: Anti-L. amazonensis promastigote assessment (MTT). It is filed as cell-based. To be noted: Leishmania amazonensis; 48 h, MTT; read-out: EC50 L. amazonensis promastigotes. The method, then:
Promastigotes of L. amazonensis (MHOM/BR/75/Josefa) were cultured in Schneider’s insect medium (SIM) with 10% FBS. Parasites were harvested at the stationary growth phase for assessment against promastigotes and 24 h after cultures reached the stationary growth phase for infection assays. […]. Complete SIM media and amphotericin B (AmB) at 10 µM were used as negative and positive controls, respectively. A vehicle control containing SIM with 10% SFB media and 0.3% DMSO was maintained for comparison. The final volume of the experiment was 100 µL. After incubation for 48 h at 27 °C, MTT salt solution in PBS was added (3.0 mM, 20 µL per well). After incubation for 2 h at 27 °C, the MTT formazan was dissolved by adding 120 µL of solubilizing buffer (50% isopropanol, 40% acetate buffer pH 5.4, 10% Triton-X). Absorbance was measured using a microplate reader at 570 nm.
as §3

Data set [4] is described as follows: Cytotoxicity to BALB/c mouse total splenocytes (MTT). Type of data set: cell-based. The following applies: male, total splenocytes (primary), 100 μM, 48 h, compared to the untreated control (Table S1). The method, then:
BALB/c mouse total splenocytes were harvested from male mice between 6–8 weeks old. After euthanasia, the spleens were removed and macerated in DMEM. After centrifugation, the cells were treated with hemolytic ACK buffer at 37 °C for 5 min. […] After incubation for 48 h at 37 °C in 5% CO2, cell viability was determined after the addition of 20 µL per well of a solution containing MTT salt (3.0 mM) and phenazine metasulphate (0.72 mM). After further incubation for 1 h at 37 °C, the medium was removed, and DMSO was added to dissolve the dark-blue formazan crystals formed by MTT reduction. Absorbance was measured on a microplate reader at 570 nm.
as §3

For another data set, the system named is LLC-MK2 cells. The data set is described as follows: Cytotoxicity to LLC-MK2 host cells (MTT). It is filed as cell-based. The following applies: Macaca mulatta, LLC-MK2; 120 h, MTT. As for the experimental part:
as §4, §5, §3

[5] abbreviates: LLC-MK2 cells (kidney fibroblasts).

Structures are written as SMILES.

The EC50 is the concentration at which the effect is half-maximal. In general, viability refers to a read-out of living cells in per cent, often relative to untreated cells. A low value points to more harm to the cells. By melting point is commonly meant the temperature, or range, at which the solid turns liquid. For `COc1cc(-c2noc(/C=C/c3ccccc3)n2)cc(OC)c1OC` [Compound 21, (E)-3-(3,4,5-trimethoxyphenyl)-5-[2-phenylvinyl]-1,2,4-oxadiazole], the melting point lay within 138 to 140 °C. The EC50 with K562 was more than 100 µM. In the data set on Lucena-1 (K562/VCR), the “RR (relative resistance) Lucena-1” value is less than 0.69 and the EC50 is 68.6 ± 10.1 µM. Further, in the data set with FEPS (K562/DNR), the “RR (relative resistance) FEPS” value is recorded as less than 0.28 and the EC50 is 27.7 ± 5.2 µM. This molecule also returned a viability at 50 µM in data set [1] of 77.3 ± 2%. This molecule displayed a viability at 120 h, 50 µM in data set [2] (setting [5]) of 88.5 ± 4.7%. Further, the EC50 in data set [3] is more than 100 µM. Further, the viability at 48 h, 100 µM in data set [4] worked out at 76.8 ± 6.6%.
`C(=C\c1cccs1)/c1nc(-c2ccccc2)no1` [Compound 17, (E)-3-phenyl-5-[2-thiophen-2-yl-vinyl]-1,2,4-oxadiazole] displayed a melting point of 93 to 95 °C. Besides, in the data set on K562, the concentration giving a half-maximal response (EC50) is more than 100 µM. Besides, in the data set with Lucena-1 (K562/VCR), the “RR (relative resistance) Lucena-1” value is less than 0.72 and the 50% effective concentration (EC50) was 71.9 ± 0.6 µM. Also, in the data set on FEPS (K562/DNR), the “RR (relative resistance) FEPS” value was less than 0.56 and the half-maximal effective concentration (EC50) is 55.7 ± 17.2 µM. In data set [1], this molecule returned a viability at 50 µM of 69.6 ± 6.3%. This molecule had a viability at 120 h, 50 µM in [2] of 86.2 ± 7.1%. Besides, the EC50 in data set [3] worked out at 77.6 ± 6.3 µM. Also, in [4], the viability at 48 h, 100 µM came to 99 ± 8.4%.
The molecule `C(=C\c1nc(-c2ccccc2)no1)/c1ccc2c(c1)OCCO2` [Compound 14, (E)-3-phenyl-5-[2-(3,4-ethylenedioxy-phenyl)vinyl]-1,2,4-oxadiazole] displayed a melting point of 143 to 145 °C. For the same molecule, in the data set on K562, the EC50 was more than 100 µM. In the data set with Lucena-1 (K562/VCR), the “RR (relative resistance) Lucena-1” value is given as less than 0.64 and the concentration for a half-maximal effect (EC50) is 64 ± 3.2 µM. In addition, in the data set with FEPS (K562/DNR), the “RR (relative resistance) FEPS” value was less than 0.41 and the EC50 was found to be 41.1 ± 4.9 µM. In data set [1], this molecule yielded a viability at 50 µM of 60.5 ± 3.8%. In data set [2] (setting [5]), the viability at 120 h, 50 µM came out at 84.5 ± 4.6%. Moreover, the 50% effective concentration (EC50) in data set [3] stood at 92.5 ± 3.8 µM. The same molecule registered a viability at 48 h, 100 µM in data set [4] of 93.6 ± 5.9%.
For `COc1cc(-c2noc(/C=C/c3ccco3)n2)cc(OC)c1OC` [Compound 25, (E)-3-(3,4,5-trimethoxyphenyl)-5-[2-(fur-2-yl)vinyl]-1,2,4-oxadiazole], the melting point was in the range of 144 to 146 °C. Also, it took 72.8 ± 9.1 µM to reach a half-maximal effect in the data set on K562 (EC50). In the data set on Lucena-1 (K562/VCR), the “RR (relative resistance) Lucena-1” value amounted to 1.05 and the EC50 was determined as 76.6 ± 6.1 µM. In the data set with FEPS (K562/DNR), the “RR (relative resistance) FEPS” value stood at 0.74 and the EC50 was found to be 53.7 ± 3.6 µM. Further, in data set [1], the viability at 50 µM was determined as 79.5 ± 5.5%. For the same molecule, the viability at 120 h, 50 µM in data set [2] (setting [5]) came out at 73.5 ± 1.7%. Moreover, the EC50 in data set [3] is more than 100 µM. The same molecule displayed a viability at 48 h, 100 µM in [4] of 63.7 ± 4.7%.
On to `COc1cccc(/C=C/c2nc(-c3ccccc3)no2)c1` [Compound 10, (E)-3-phenyl-5-[2-(3-methoxyphenyl)vinyl]-1,2,4-oxadiazole], for which the melting point was in the range of 88 to 90 °C. The EC50 in the data set with K562 was more than 100 µM. For the same molecule, in the data set on Lucena-1 (K562/VCR), the EC50 is more than 100 µM. For the same molecule, the concentration for a half-maximal effect (EC50) in the data set with FEPS (K562/DNR) is more than 100 µM. Moreover, the viability at 50 µM in data set [1] worked out at 77.7 ± 6.3%. The viability at 120 h, 50 µM in data set [2] (setting [5]) was 86.6 ± 3.6%. Further, the EC50 in data set [3] amounted to 50.8 ± 6.3 µM. In data set [4], the viability at 48 h, 100 µM stood at 85.4 ± 4%.
The molecule `O=C(Cn1ccnc1[N+](=O)[O-])NCc1ccccc1` [Benznidazole, reference compound] came in with a viability at 50 µM in [1] of 23.2 ± 1.4%. Besides, the EC50 in data set [1] (in LLC-MK2, 120 h, read-out: EC50 T. cruzi intracellular amastigotes) was 1.5 ± 0.2 µM; in the data set with LLC-MK2 cells, more than 100 µM.
